Test [1] relates to FCV (Feline Calcivirus). In words: Virucidal suspension test (EN14476), viral kill of FCV. Type of test: cell-based, Feline Calicivirus. As to conditions: contact time five minutes, clean conditions (bovine albumin). How it is done: (§1) The virucidal activity of various test solutions were measured using the following protocol.
(§2) A standard EST protocol (EN14476) was followed for the evaluation of activity of antiviral actives in suspension test. Antiviral activity of actives was tested in clean conditions.
(§3) Clean conditions: To create clean conditions, 0.3 g of bovine albumin fraction V was dissolved in 100 ml of water and sterilised by passing the solution through a 0.2 μm filter).
(§4) Preparation of test mixture: To prepare the test mixture, 1 ml of interfering substance (Bovine Albumin) was pipetted into a suitable container, followed by addition of 1 ml of test virus suspension. To this, 8 ml of product test solution was added. At the end of chosen contact time period, 100 μl of the test mixture was added to resin column. Centrifugation of microspin column (735×g, 2 min). The elutant was diluted up to 10^−6 in ice cold virus growth medium. The infectivity of each dilution was measured by TCID50 using the Spaerman-Karber formula. Titration of Virus: Monolayers of cells were grown in 96-well tissue-culture plates (Costar) at 37° C. in an atmosphere of 95% air and 5% carbon dioxide (CO2). Tenfold dilutions of virus suspension were prepared in virus growth medium. One hundred microlitres of each dilution was added to five replicate wells in 96-well tissue-culture plates. Cell controls were included on each plate. Plates were incubated at 37° C. in an atmosphere of 95% air/5% CO2. Cultures were observed daily for viral cytopathic effect for a period of seven days after which they were discarded. The virus titre was calculated by TCID50 (Tissue culture infective dose) using the Spaerman-Karber formula.
(§5) Negative logarithm of the 50% end point=Negative logarithm of the highest virus concentration used−[(Sum of % affected at each dilution/100−0.5)×([…])]
Various compositions as shown in Table-1 were prepared and their virucidal activity was measured using the procedure given earlier. […]
Various compositions as shown in Table-4 were prepared and their virucidal activity was measured using the procedure given earlier. […]

Test [2] deals with RSV (Respiratory syncitial virus). In words: Virucidal suspension test (EN14476), virus kill of RSV. Type of test: cell-based. As to conditions: contact time five minutes, clean conditions (bovine albumin). How it is done:
as §1, §2, §3, §4, §5
Various compositions as shown in Table-2 were prepared and their virucidal activity was measured using the procedure given earlier. […]
Various compositions as shown in Table-5 were prepared and their virucidal activity was measured using the procedure given earlier. […]

Test [3] concerns MS2 Phage. In words: Virucidal suspension test (EN14476), virus kill of MS-2 bacteriophage. As to conditions: contact time five minutes, clean conditions (bovine albumin), MS2 Phage control 6.36, Table 3. Type of test: cell-based. How it is done: as §1, §2, §3
Preparation of test mixture: To prepare the test mixture, 1 ml of interfering substance (Bovine Albumin) was pipetted into a suitable container, followed by addition of 1 ml of test virus suspension. To this, 8 ml of product test solution was added. At the end of chosen contact time period, 100 μl of the test mixture was added to resin column. Centrifugation of microspin column (735×g, 2 min). The elutant was diluted up to 10^−6 in ice cold virus growth medium. The infectivity of each dilution was measured by TCID50 using the Spaerman-Karber formula. Titration of Virus: Monolayers of cells were grown in 96-well tissue-culture plates (Costar) at 37° C. in an atmosphere of 95% air and 5% carbon dioxide (CO2). […] The virus titre was calculated by TCID50 (Tissue culture infective dose) using the Spaerman-Karber formula. […]
Various compositions as shown in Table-3 were prepared and their virucidal activity was measured using the procedure given earlier. […]

`COc1cc(/C=C/C(=O)CC(=O)/C=C/c2ccc(O)c(OC)c2)ccc1O` [Example 3, Curcumin]: the “amount of virus remaining, Log TCID50/0.1 ml” value in test [1] (FCV Control 4.50, Table 1) was 3.40 Log TCID50/0.1 ml; in test [2] (RSV Control 5.00, Table 2), 4.65 Log TCID50/0.1 ml.

As for benzalkonium chloride [Example 2], the “amount of virus remaining, Log TCID50/0.1 ml” value came to 3.25 Log TCID50/0.1 ml in test [1] (FCV Control 4.50, Table 1) and 2.50 Log TCID50/0.1 ml in test [2] (RSV Control 5.00, Table 2).

As to benzalkonium chloride [Example 10], the “amount of virus remaining, Log TCID50/0.1 ml” value in test [1] (FCV Control 5.50, Table 4) was 3.10 Log TCID50/0.1 ml; in test [2] (RSV Control 4.70, Table 5) it was 3.90 Log TCID50/0.1 ml; in test [3], 1.94 Log TCID50/0.1 ml.

Source of the values: patent US20130316027A1, “ANTIMICROBIAL COMPOSITION” (priority 2011, published 2013).
